From patent US11274102B2, “Compounds useful in HIV therapy” (GLAXOSMITHKLINE INTELLECTUAL PROPERTY DEVELOPMENT LIMITED, priority 2017, dated 2022)
Where two headings read alike, the source gives them in different places.

Legend:
[1] = tested on: HIV-infected Jurkat cell clones (C16, 115 and N6); assay: Jurkat HIV Latency assay (HIV-expressed luciferase); format: cell-based; conditions: Homo sapiens, averaged potency for HIV latency disruption in Jurkat HIV cells, 24 hours incubation, read-out: Jurkat Mean PXC50 (converted)
Procedure: For the Jurkat HIV Latency assay, compounds were dissolved and titrated in DMSO and diluted 100-fold in assay medium (RPMI-1640 containing 10% fetal bovine serum) containing an equal mixture of three HIV-infected Jurkat cell clones (C16, 115 and N6) at a total concentration of 1-2×10^5 cells/mL. To test stability, compounds are pre-incubated in assay medium for 48 hours at 37° C. prior to adding cells (48 hr EC50). Compounds that induce HIV expression result in a dose-dependent production of the HIV expressed luciferase enzyme. After the incubation of cells with compound for 24 hours at 37° C., HIV activation and cytotoxicity are determined by measuring luminescence after the addition of Promega Steady-Glo® Luciferase Assay reagent or CellTiter-Glo® Luminescent Cell Viability Assay reagent, respectively.

[2] = tested on: CD4+ T cells from HIV-infected donors; assay: HIV latency disruption in primary patient CD4+ T cells (HIV gag RNA by RT-qPCR); format: cell-based; conditions: Homo sapiens
Procedure: For the assessment of compound activity in primary patient cells, PBMCs were obtained by continuous-flow leukapheresis from HIV-infected, antiretrovirally-treated, aviremic patients whose plasma HIV-1 RNA was less than 50 copies/mL at the time of collection. PBMCs were isolated by Ficoll-Hypaque density gradient centrifugation and cryopreserved in the vapor phase of liquid nitrogen. On the day of assay, cells were rapidly thawed to room temperature in a 37° C. water bath and total CD4+ T cells were isolated by negative selection (Stemcell Technologies). CD4+ T cells were reconstituted in assay medium (RPMI-1640 containing 10% fetal bovine serum, 10 ug/mL Fuzeon® and 200 nM Rilpivirin) and 5×10^6 were plated onto 2 mL 96-well polypropylene plates. Compounds were dissolved in DMSO, diluted 1:250 into assay medium and then titrated into assay medium supplemented with 0.4% DMSO with a minimum of 3 biological replicates per each treatment condition. Compound titrations were transferred to the cells and the assay plates were incubated at 37° C. for 24 hours. Following incubation, the assay plates were centrifuged at 400×g for 10 minutes and the cell-free supernatants were removed and discarded. The nucleic acid from the cell pellets were extracted, purified and segregated into RNA and DNA components using AllPrep DNA/RNA 96-well kits (Qiagen). HIV reactivation was quantified from the RNA fraction by one-step RT-qPCR (applied Biosystems) using primers and probe that target gag messenger RNA. HIV copies were calculated based on extrapolations from standard curves generated with known quantities of synthetic target HIV gag DNA in the same PCR reaction plate as the samples. A minimum of 3 technical RT-qPCR replicates were run for each biological replicate.
Data were normalized and modeled accordingly raw data were used to calculate the absolute number of HIV-gag RNA copies per million CD4+ T cells, with the value for each compound and concentration based on the averaged value of 3 to 5 biological replicates, with each biological replicate value being the average of 3 technical RT-qPCR replicates.
The dose-response curve was fit to an unconstrained four parameter logistic equation, defined as: y=Vmax{1−[x^n÷(K^n+x^n)]}+Y2 • Where: • x=compound concentration • y=normalized response data • Vmax=upper bound of response • K=EC50 • Y2=lower bound or baseline of response • n=hill coefficient
An example of dose-response HIV latency disruption in vitro is presented in FIG. 1 comparing the compound of invention (Example-1) to the compound of prior art (Compound-A) in peripheral blood CD4+ T cells from a HIV-infected fully-suppressed subject. […]

[3] = average potency from multiple donors, CD4+ T cells from HIV-infected donors, 24 hours, gag RNA, read-out: CD4 Mean PXC50 (converted)

## O=C1CCCN1Cc1nnc(Sc2ncnc3occ(-c4cccs4)c23)o1 [Example 6, 1-((5-((5-(thiophen-2-yl)furo[2,3-d]pyrimidin-4-yl)thio)-1,3,4-oxadiazol-2-yl)methyl)pyrrolidin-2-one]
[1]
  EC50: 0.902 µM

## Cc1ccc(-c2coc3ncnc(Sc4nnc(CN5CCCC5=O)o4)c23)s1 [Example 7, 1-((5-((5-(5-methylthiophen-2-yl)furo[2,3-d]pyrimidin-4-yl)thio)-1,3,4-oxadiazol-2-yl)methyl)pyrrolidin-2-one]
[1]
  EC50: 0.625 µM
[2]; [3]
  EC50: 0.39 µM

## O=C1CCCN1Cc1nnc(Sc2ncnc3occ(-c4ccco4)c23)o1 [Example 4, 1-((5-((5-(furan-2-yl)furo[2,3-d]pyrimidin-4-yl)thio)-1,3,4-oxadiazol-2-yl)methyl)pyrrolidin-2-one]
[1]
  EC50: 0.491 µM
[2]; [3]
  EC50: 0.015 µM

## O=C1CCCN1Cc1nnc(Sc2ncnc3occ(-c4ccc(Cl)cc4)c23)o1 [Example 1, 1-((5-((5-(4-chlorophenyl)furo[2,3-d]pyrimidin-4-yl)thio)-1,3,4-oxadiazol-2-yl)methyl)pyrrolidin-2-one]
[1]
  EC50: 0.632 µM
[2]; FIG. 1, peripheral blood CD4+ T cells from a HIV-infected fully-suppressed subject, cell-associated HIV gag RNA, 4-parameter logistic regression, read-out: EC50
  EC50: 0.047 µM
[2]; [3]
  EC50: 0.0357 µM
